Assay results taken from ChEMBL document CHEMBL1201862, “PubChem BioAssay data set” (2004).
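Compound exposure: 48 hours, 5 concentrations, 96-well plates. GI50 = concentration required for 50% inhibition of growth.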 Active and inactive are the calls of the source. Cut-off read from the data, not from the text of the source: active = GI50 up to about 1.1 µM and inactive = higher.

Legend:
Experiment in all cases: NCI-60 cell line screen, 48 h
[1] = tested on: Hs-578T
[2] = tested on: A498
[3] = tested on: DU-145
[4] = tested on: CAKI-1
[5] = tested on: RPMI-8226
[6] = tested on: PC-3
[7] = tested on: Malme-3M
[8] = tested on: SK-MEL-5
[9] = tested on: HOP-62
[10] = tested on: NCI-H23
[11] = tested on: NCI-H226
[12] = tested on: BT-549
[13] = tested on: HCC 2998
[14] = tested on: A549
[15] = tested on: MCF7
[16] = tested on: UACC-257
[17] = tested on: NCI/ADR-RES
[18] = tested on: IGROV-1
[19] = tested on: SF-268
[20] = tested on: SK-OV-3

Measured: GI50

CC1C(C#N)(C#N)C(C#N)=C(N)C1(C)[N+](=O)[O-] (stereo not given)
inactive: [1] 64.9 µM | [2] 68.2 µM | [3] > 100 µM | [4] 5.27 µM | [5] 28.7 µM | [6] 66.4 µM | [7] 48.2 µM | [8] > 100 µM | [9] > 100 µM | [10] > 100 µM | [11] > 100 µM | [12] 42.1 µM | [13] 47.6 µM | [14] 23.5 µM | [15] 24.8 µM | [16] 79.8 µM | [17] > 100 µM | [18] 37.2 µM | [19] > 100 µM | [20] > 100 µM

CC(CC[C@@]1(O)OC2C[C@H]3[C@@H]4CC[C@H]5CC(OC6OC(CO)C(OC7OC(CO)C(O)C(OC8OCC(O)C(O)C8O)C7OC7OC(CO)C(O)C(O)C7O)C(O)C6O)[C@H](O)CC5(C)[C@H]4CCC3(C)C2[C@@H]1C)COC1OC(CO)C(O)C(O)C1O (stereo not given in full)
inactive: [1] 4.73 µM | [2] 18.9 µM | [3] 3.09 µM | [4] 4.76 µM | [5] 19.4 µM | [6] 10.3 µM | [7] 15.2 µM | [8] 6.9 µM | [9] 4.15 µM | [10] 2.8 µM | [11] 13.5 µM | [12] 1.76 µM | [13] 13.8 µM | [14] 3.47 µM | [15] 8.71 µM | [16] 15.8 µM | [17] 6.65 µM | [18] 11.3 µM | [19] 2.48 µM | [20] 13.2 µM
